Measured values as given in US11517617B2, “Methods and compositions for preventing influenza infection” (THE UNIVERSITY OF MELBOURNE, priority 2017, dated 2022).
No end group written: not given here.

Tests used:
[1] = test system: CD8^+ T cells; type: cell-based, human
[2] = test system: memory CD8^+ T cells within PBMCs; type: cell-based, human

Sequence | additional low avidity CD8^+ T cells detected by Q115E staining [1] | cross-reactivity of CD8^+ T cells after in vitro expansion with the peptide [2] | recognition of IBV-derived variant by IAV-expanded CD8^+ T cells [2]
GILGFVFVL [M158-66, GILGFVFVL, reference compound] | could be detected | – | –
VSDGGPNLY (Influenza A virus) [PB1591-599] | – | recognizing both IAV- and IBV-derived peptides | –
VADGGPNIY (Influenza B virus) [BPB1590-598, IBV variant of PB1591-599] | – | could not expand CD8^+ T cells | to a lesser extent
